Patent EP0478631B1, “TARGETTING AGENTS” (CANCER RESEARCH CAMPAIGN TECHNOLOGY LTD., priority 1989, dated 1991)

Biological target: Cloudman S91
Test: Tyrosinase activity in vitro (release of tritiated water from 3,5-3H-tyrosine)
Type: cell-based
Conditions: molar concentration giving a response equal to half the maximum; tyrosinase activity relative to melanotropin-free control; Cloudman S91 monolayers, 24 h + further 24 h with 3,5-³H-tyrosine; read-out: EC₅₀
Method: Cloudman S91 were grown in monolayers to a density of approximately 25,000 cells cm⁻² in 25cm² culture flasks using 4 ml Ham's F10 medium supplemented with 10% heat inactivated foetal calf serum. The medium was replaced and 10⁻⁵ and 10⁻⁹ molar concentrations of the test or control compound added. After 24 h, medium and melantropins were renewed and 1»Ci, 3,5-³H-tyrosine included. The final specific activity of 3,5-³H-tyrosine incubation medium was 0.1 Ci/mmol.
After a further 24h, 0.2ml of the medium from each incubation were transferred to centrifuge tubes containing 1ml activated charcoal suspension (100 mg/ml in 0.1M citric acid). The tubes were vortexed and centrifuged at 700 x g for 5 min. Aliquots (0.5 ml) of each supernatant were transferred to scintillation vials and counted on a Packard Tri-Carb 300D scintillation counter. Aliquots (0.1ml) of the unextracted medium were also counted. Finally, the remaining medium was removed and the cell monolayer suspended in 1ml isotonic trypsin/EDTA. The dispersed cells were counted in a Coulter counter.
The amount of water generated from the tyrosine per 10⁵ cells was calculated and the results divided by the value obtained from the melanotropin-free control. The activities of the melanotropins were expressed as the molar concentrations required to give responses equal to half the maximum (EC₅₀) and are recorded in Table 1.

EC50 [nM] | Compound
2.81 | alpha-melanocyte stimulating hormone [MSH]
0.74 | CCCC[C@H](NC(C)=O)C(=O)N[C@@H](CC(=O)O)C(=O)N[C@@H](Cc1c[nH]cn1)C(=O)N[C@H](Cc1ccccc1)C(=O)N[C@@H](CCCNC(=N)N)C(=O)N[C@@H](Cc1c[nH]c2ccccc12)C(=O)N[C@@H](CCCCN)C(N)=O [MSH(4-10), Ac-[Nle⁴, Asp⁵, D-Phe⁷, Lys¹⁰] α-MSH₄₋₁₀-NH₂]
